In patent publication US8674113B2, “Compounds” (Boehringer Ingelheim International GmbH, priority 2010, dated 2014):

Tests used:
[1] = molecular target: recombinant human mPGES-1 (Homo sapiens (Human), UniProt O14684); assay: mPGES-1 enzyme assay (HTRF detection of PGE2); format: biochemical; conditions: recombinant human mPGES-1 microsomes, PGH2 2 μM, 60 seconds; read-out: mPGES-1 inhibitory effect IC50 in the enzyme assay
How it was run: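 Microsomes from E. coli expressing recombinant human mPGES-1 (~0.5 μg protein/well) in 0.1 M phosphate pH 7.4 with 2.5 mM GSH, pre-incubated with compound 25 min at room temperature. PGH2 (2 μM final) added, reaction stopped with FeCl2 after 60 s; PGE2 quantified by HTRF (665/620 ratio) against a calibration curve, IC50 by nonlinear regression after background subtraction.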

mPGES-1 in A549 cells = mPGES-1 in A549 cells (Homo sapiens (Human), UniProt O14684); assay: A549 cell-based assay (PGE2 formation, 50% human serum); conditions: IL-1β 5 ng/ml, 10 nM arachidonic acid, 20-24 h, read-out: mPGES-1 inhibitory effect IC50 in the cell assay
How it was run: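 A549 cells in F-12K with 50% human serum were stimulated 20-24 h with 5 ng/ml IL-1β and 10 nM arachidonic acid in presence of compound or vehicle. PGE2 in the cell-free medium was measured by HTRF, normalised to vehicle (100%). IC50 from 6-8 point titrations.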

Sequence of mPGES-1 in A549 cells (O14684 whole entry): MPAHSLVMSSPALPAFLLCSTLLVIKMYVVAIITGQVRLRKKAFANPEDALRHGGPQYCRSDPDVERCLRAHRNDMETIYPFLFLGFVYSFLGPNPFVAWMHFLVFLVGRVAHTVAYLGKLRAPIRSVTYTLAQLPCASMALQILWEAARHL
Sequence of recombinant human mPGES-1 (O14684 whole entry): as above

Structure (SMILES)	IC50 [1] [nM]	IC50 (mPGES-1 in A549 cells) [nM]
Cn1c(Nc2c(Cl)ccc(CNC(=O)C(C)(C)C)c2Cl)nc2cc(C(=O)NCCC(F)(F)F)c(N3CCCC(C(F)(F)F)C3)cc21 (centres unmarked) [Example 81, N-(3,3,3-Trifluoropropyl)-2-{2,6-dichloro-3-[(2,2-dimethyl-propionylamino)-methyl]-phenylamino}-6-[3-trifluoromethyl-piperidinyl]-1-methyl-1H-benzimidazole-5-carboxylic acid amide]	4	< 1
Cn1c(Nc2c(Cl)ccc(CNC(=O)C(C)(C)C)c2Cl)nc2cc(C(=O)N[C@H]3CC[C@H](C(F)(F)F)CC3)c(N3CCC(O)(C(F)(F)F)CC3)cc21 [Example 82]	3	1
Cn1c(Nc2c(Cl)ccc(CNC(=O)C(C)(C)C)c2Cl)nc2cc(C(=O)N[C@H]3CC[C@H](C(F)(F)F)CC3)c(N3CCC(O)C3)cc21 (some centres unmarked) [Example 84]	3	16
Cn1c(Nc2c(Cl)ccc(CNC(=O)C(C)(C)C)c2Cl)nc2cc(C(=O)N[C@H]3CC[C@H](C(F)(F)F)CC3)c(N3CC(C)(O)C3)cc21 [Example 86]	4	5
Cn1c(Nc2c(Cl)ccc(CNC(=O)C(C)(C)C)c2Cl)nc2cc(C(=O)N[C@H]3CC[C@H](C(F)(F)F)CC3)c(N3CCCC(C(F)(F)F)C3)cc21 (some centres unmarked) [Example 89]	2	1
CN(c1cc2c(cc1C(=O)N[C@H]1CC[C@H](C(F)(F)F)CC1)nc(Nc1c(Cl)ccc(CNC(=O)C(C)(C)C)c1Cl)n2C)C1CCC1 [Example 91]	4	< 1
Cn1c(Nc2c(Cl)ccc(CNC(=O)C(C)(C)C)c2Cl)nc2cc(C(=O)N[C@H]3CC[C@H](C(F)(F)F)CC3)c(N3CC4(CCC4)C3)cc21 [Example 94]	4	6
Cn1c(Nc2c(Cl)ccc(CNC(=O)C(C)(C)C)c2Cl)nc2cc(C(=O)N[C@H]3CC[C@H](C(F)(F)F)CC3)c(N3CCC3)cc21 [Example 96]	16	21
COC1CN(c2cc3c(cc2C(=O)N[C@H]2CC[C@H](C(F)(F)F)CC2)nc(Nc2c(Cl)ccc(CNC(=O)C(C)(C)C)c2Cl)n3C)C1 [Example 98]	5	5
Cn1c(Nc2c(Cl)ccc(CNC(=O)C(C)(C)C)c2Cl)nc2cc(C(=O)N[C@H]3CC[C@H](C(F)(F)F)CC3)c(N3CC(OC(F)F)C3)cc21 [Example 99]	1	5
Cn1c(Nc2c(Cl)ccc(CNC(=O)C(C)(C)C)c2Cl)nc2cc(C(=O)N[C@H]3CC[C@H](C(F)(F)F)CC3)c(N3CCC(C(F)(F)F)C3)cc21 (some centres unmarked) [Example 100]	3	1
Cn1c(Nc2c(Cl)ccc(CNC(=O)C(C)(C)C)c2Cl)nc2cc(C(=O)N[C@H]3CC[C@H](C(F)(F)F)CC3)c(N3CC4CCCC4C3)cc21 (some centres unmarked) [Example 101]	2	1.5
Cn1c(Nc2c(Cl)ccc(CNC(=O)C(C)(C)C)c2Cl)nc2cc(C(=O)N[C@H]3CC[C@H](C(F)(F)F)CC3)c(N3CC4COCC4C3)cc21 (some centres unmarked) [Example 102]	2	1.5
C#CCN(C)c1cc2c(cc1C(=O)N[C@H]1CC[C@H](C(F)(F)F)CC1)nc(Nc1c(Cl)ccc(CNC(=O)C(C)(C)C)c1Cl)n2C [Example 103, N-(trans-4-Trifluoromethyl-cyclohexyl)-2-{2,6-dichloro-3-[(2,2-dimethyl-propionylamino)-methyl]-phenylamino}-6-[N-methyl-N-propargylamino]-1-methyl-1H-benzimidazole-5-carboxylic acid amide]	1	< 1
COC(C)CN(C)c1cc2c(cc1C(=O)N[C@H]1CC[C@H](C(F)(F)F)CC1)nc(Nc1c(Cl)ccc(CNC(=O)C(C)(C)C)c1Cl)n2C (some centres unmarked) [Example 104]	2	1
CC(O)CN(C)c1cc2c(cc1C(=O)N[C@H]1CC[C@H](C(F)(F)F)CC1)nc(Nc1c(Cl)ccc(CNC(=O)C(C)(C)C)c1Cl)n2C (some centres unmarked) [Example 106]	2	< 1
CN(CC1(C)CC1)c1cc2c(cc1C(=O)N[C@H]1CC[C@H](C(F)(F)F)CC1)nc(Nc1c(Cl)ccc(CNC(=O)C(C)(C)C)c1Cl)n2C [Example 107]	1	< 1
CN(CC(C)(C)O)c1cc2c(cc1C(=O)N[C@H]1CC[C@H](C(F)(F)F)CC1)nc(Nc1c(Cl)ccc(CNC(=O)C(C)(C)C)c1Cl)n2C [Example 109]	2	1
CN(CC(N)=O)c1cc2c(cc1C(=O)N[C@H]1CC[C@H](C(F)(F)F)CC1)nc(Nc1c(Cl)ccc(CNC(=O)C(C)(C)F)c1Cl)n2C [Example 111]	2	22
CN(CC#N)c1cc2c(cc1C(=O)N[C@H]1CC[C@H](C(F)(F)F)CC1)nc(Nc1c(Cl)ccc(CNC(=O)C(C)(C)C)c1Cl)n2C [Example 112, N-(trans-4-Trifluoromethyl-cyclohexyl)-2-{2,6-dichloro-3-[(2,2-dimethyl-propionylamino)-methyl]-phenylamino}-6-[N-methyl-N-cyanomethyl-amino]-1-methyl-1H-benzimidazole-5-carboxylic acid amide]	3	1
CN(c1cc2c(cc1C(=O)N[C@H]1CC[C@H](C(F)(F)F)CC1)nc(Nc1c(Cl)ccc(CNC(=O)C(C)(C)C)c1Cl)n2C)C1CCSC1 (stereo partly drawn) [Example 117, N-(trans-4-trifluoromethyl-cyclohexyl)-2-{2,6-dichloro-3-[(2,2-dimethyl-propionylamino)-methyl]-phenylamino}-6-[N-methyl-N-(tetrahydro-thiophen-3-yl)-amino]-1-methyl-1H-benzimidazole-5-carboxylic acid amide]	2	2
CN(c1cc2c(cc1C(=O)N[C@H]1CC[C@H](C(F)(F)F)CC1)nc(Nc1c(Cl)ccc(CNC(=O)C(C)(C)C)c1Cl)n2C)C1CC[S+]([O-])C1 (stereo partly drawn) [Example 118, N-(trans-4-Trifluoromethyl-cyclohexyl)-2-{2,6-dichloro-3-[(2,2-dimethyl-propionylamino)-methyl]-phenylamino}-6-[N-methyl-N-(1-oxo-tetrahydro-thiophen-3-yl)-amino]-1-methyl-1H-benzimidazole-5-carboxylic acid amide]	3	10
CN(c1cc2c(cc1C(=O)N[C@H]1CC[C@H](C(F)(F)F)CC1)nc(Nc1c(Cl)ccc(CNC(=O)C(C)(C)C)c1Cl)n2C)C1CCS(=O)(=O)C1 (stereo partly drawn) [Example 119, N-(trans-4-Trifluoromethyl-cyclohexyl)-2-{2,6-dichloro-3-[(2,2-dimethyl-propionylamino)-methyl]-phenylamino}-6-[N-methyl-N-(1,1-dioxo-tetrahydro-thiophen-3-yl)-amino]-1-methyl-1H-benzimidazole-5-carboxylic acid amide]	2	1

Further molecules by falling IC50 [1], results first:

IC50 [1] [nM]	IC50 (mPGES-1 in A549 cells) [nM]	Structure (SMILES)
15	86	Cn1c(Nc2c(Cl)ccc(CNC(=O)C(C)(C)C)c2Cl)nc2cc(C(=O)N[C@H]3CC[C@H](C(F)(F)F)CC3)c(NCCCO)cc21 [Example 85]
8	62	Cn1ccnc1CNc1cc2c(cc1C(=O)N[C@H]1CC[C@H](C(F)(F)F)CC1)nc(Nc1c(Cl)ccc(CNC(=O)C(C)(C)C)c1Cl)n2C [Example 113]
3	17	Cn1c(Nc2c(Cl)ccc(CNC(=O)C(C)(C)C)c2Cl)nc2cc(C(=O)N[C@H]3CC[C@H](C(F)(F)F)CC3)c(N3CC4(COC4)C3)cc21 [Example 93]
2	1.4	Cn1c(Nc2c(Cl)ccc(CNC(=O)C(C)(C)C)c2Cl)nc2cc(C(=O)N[C@H]3CC[C@H](C(F)(F)F)CC3)c(N3CCC(C)(O)C3)cc21 (some centres unmarked) [Example 83]
2	8	Cn1c(Nc2c(Cl)ccc(CNC(=O)C(C)(C)C)c2Cl)nc2cc(C(=O)N[C@H]3CC[C@H](C(F)(F)F)CC3)c(N3CC(O)C3)cc21 [Example 87]
2	1.5	CN(Cc1nccn1C)c1cc2c(cc1C(=O)N[C@H]1CC[C@H](C(F)(F)F)CC1)nc(Nc1c(Cl)ccc(CNC(=O)C(C)(C)C)c1Cl)n2C [Example 88]
2	1.4	Cn1c(Nc2c(Cl)ccc(CNC(=O)C(C)(C)C)c2Cl)nc2cc(C(=O)N[C@H]3CC[C@H](C(F)(F)F)CC3)c(N3C4CCC3CC4)cc21 [Example 92]
2	7	Cn1c(Nc2c(Cl)ccc(CNC(=O)C(C)(C)C)c2Cl)nc2cc(C(=O)N[C@H]3CC[C@H](C(F)(F)F)CC3)c(N3CC4CCCC43)cc21 (some centres unmarked) [Example 95]
2	10	CN(CCS(C)(=O)=O)c1cc2c(cc1C(=O)N[C@H]1CC[C@H](C(F)(F)F)CC1)nc(Nc1c(Cl)ccc(CNC(=O)C(C)(C)C)c1Cl)n2C [Example 105]
2	1.6	CN(Cc1ccc(F)cc1)c1cc2c(cc1C(=O)N[C@H]1CC[C@H](C(F)(F)F)CC1)nc(Nc1c(Cl)ccc(CNC(=O)C(C)(C)C)c1Cl)n2C [Example 110, N-(trans-4-Trifluoromethyl-cyclohexyl)-2-{2,6-dichloro-3-[(2,2-dimethyl-propionylamino)-methyl]-phenylamino}-6-[N-methyl-N-(4-fluorobenzyl)amino]-1-methyl-1H-benzimidazole-5-carboxylic acid amide]
1	< 1	Cn1c(Nc2c(Cl)ccc(CNC(=O)C(C)(C)C)c2Cl)nc2cc(C(=O)N[C@H]3CC[C@H](C(F)(F)F)CC3)c(N3CCN(C4CC4)CC3)cc21 [Example 108]
